According to PMC6198068, “Discovery of a Novel Nav1.7 Inhibitor From Cyriopagopus albostriatus Venom With Potent Analgesic Efficacy” (Frontiers in Pharmacology, 2018):
Where a SMILES comes first, the peptide text is derived from it. Bridges are numbered along the chain shown (N, C = ends).

Columns and labels:
Nav1.2 = target: T1, Nav1.2 (Homo sapiens, UniProt Q99250); assay: Whole-cell patch-clamp, Nav1.2 in HEK293T cells; format: cell-based; conditions: mean ± SEM
T1 construct: expressed in transfected cells; host or cells: HEK293T
T1 sequence (Q99250 whole entry): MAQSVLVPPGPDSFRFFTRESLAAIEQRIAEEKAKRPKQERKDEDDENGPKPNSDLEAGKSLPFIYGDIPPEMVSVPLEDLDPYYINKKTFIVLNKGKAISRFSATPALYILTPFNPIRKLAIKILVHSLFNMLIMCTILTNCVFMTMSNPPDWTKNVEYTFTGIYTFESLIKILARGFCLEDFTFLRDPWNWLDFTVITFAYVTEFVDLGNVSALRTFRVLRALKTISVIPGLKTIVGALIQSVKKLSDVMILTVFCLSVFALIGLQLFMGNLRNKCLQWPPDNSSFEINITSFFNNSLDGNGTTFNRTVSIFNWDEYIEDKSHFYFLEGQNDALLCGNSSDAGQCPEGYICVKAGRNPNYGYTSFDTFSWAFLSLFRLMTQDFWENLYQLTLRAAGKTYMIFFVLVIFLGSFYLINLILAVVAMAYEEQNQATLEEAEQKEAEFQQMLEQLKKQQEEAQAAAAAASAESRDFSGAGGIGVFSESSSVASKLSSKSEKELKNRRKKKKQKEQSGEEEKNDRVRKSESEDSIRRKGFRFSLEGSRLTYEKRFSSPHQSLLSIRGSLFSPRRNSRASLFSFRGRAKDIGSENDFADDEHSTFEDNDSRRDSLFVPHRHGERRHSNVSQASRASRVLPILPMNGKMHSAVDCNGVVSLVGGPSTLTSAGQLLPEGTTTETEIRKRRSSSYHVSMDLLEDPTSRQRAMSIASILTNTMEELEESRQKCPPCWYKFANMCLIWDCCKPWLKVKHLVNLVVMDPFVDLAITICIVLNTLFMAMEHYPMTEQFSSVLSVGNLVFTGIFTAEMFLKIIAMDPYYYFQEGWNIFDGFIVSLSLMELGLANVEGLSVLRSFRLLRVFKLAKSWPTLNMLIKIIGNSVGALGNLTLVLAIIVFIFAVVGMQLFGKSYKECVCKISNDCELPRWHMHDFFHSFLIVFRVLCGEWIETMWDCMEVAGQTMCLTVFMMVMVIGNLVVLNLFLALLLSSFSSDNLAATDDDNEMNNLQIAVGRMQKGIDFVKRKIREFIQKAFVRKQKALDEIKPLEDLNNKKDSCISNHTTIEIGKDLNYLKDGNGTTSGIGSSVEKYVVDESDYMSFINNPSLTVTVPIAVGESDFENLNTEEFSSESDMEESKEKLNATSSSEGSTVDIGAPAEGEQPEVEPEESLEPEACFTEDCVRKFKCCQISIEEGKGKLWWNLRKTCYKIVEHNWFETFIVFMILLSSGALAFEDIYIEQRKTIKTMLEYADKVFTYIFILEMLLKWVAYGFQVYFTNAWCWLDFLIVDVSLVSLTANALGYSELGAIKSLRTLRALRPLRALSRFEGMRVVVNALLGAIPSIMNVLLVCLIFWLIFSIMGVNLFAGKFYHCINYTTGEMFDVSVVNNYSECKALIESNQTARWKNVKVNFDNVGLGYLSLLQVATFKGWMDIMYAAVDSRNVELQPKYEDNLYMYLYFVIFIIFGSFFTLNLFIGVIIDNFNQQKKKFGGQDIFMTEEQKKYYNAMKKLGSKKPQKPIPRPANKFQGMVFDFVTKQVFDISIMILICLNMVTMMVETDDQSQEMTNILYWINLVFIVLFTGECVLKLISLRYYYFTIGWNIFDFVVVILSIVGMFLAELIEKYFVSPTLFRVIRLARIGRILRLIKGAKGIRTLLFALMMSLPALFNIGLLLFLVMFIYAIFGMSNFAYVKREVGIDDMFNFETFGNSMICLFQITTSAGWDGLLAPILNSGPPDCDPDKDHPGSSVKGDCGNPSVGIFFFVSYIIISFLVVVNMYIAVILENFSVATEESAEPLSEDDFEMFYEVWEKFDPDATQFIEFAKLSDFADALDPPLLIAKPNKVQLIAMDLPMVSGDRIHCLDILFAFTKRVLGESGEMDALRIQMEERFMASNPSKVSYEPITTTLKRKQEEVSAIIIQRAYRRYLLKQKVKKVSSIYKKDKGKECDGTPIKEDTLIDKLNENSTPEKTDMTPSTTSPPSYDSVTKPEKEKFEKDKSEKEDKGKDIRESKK
Source text: (§1) The cDNA genes encoding rat Nav1.4 and human Nav1.7 were subcloned into vectors pRGB4 and pcDNA3.1-mod, respectively. Mutations of rNav1.4 (N655D, Q657E, and N655D/Q657E) and hNav1.7 (D816N, E818Q, and D816N/E818Q) were constructed using the Gene Tailor Site-Directed Mutagenesis system (Invitrogen, Carlsbad, CA, United States), according to the manufacturer’s instructions. Nav1.2–Nav1.7 and mutant plasmids together with eGFP were transiently transfected into HEK293T cells while Nav1.8 together with eGFP was transiently transfected into ND7/23 cells by Lipofectamine 2000 (Invitrogen, Carlsbad, CA, United States). Additionally, plasmids β1- and β2-eGFP encoding the human β1 and β2 subunits, respectively, were co-transfected with those encoding WT Nav1.7 and Nav1.7 mutations in HEK293T cells. […] Cells with green fluorescent protein fluorescence were selected for whole-cell patch-clamp recordings 24 h after transfection.
(§2) Whole-cell patch-clamp recordings were performed at room temperature (20–25°C) using an EPC 10 USB Patch Clamp Amplifier (HEKA, Elektronik, Lambrecht, Germany). […] Data was analyzed by software Igo Pro 6.10A (WaveMetrics, Lake Oswego, OR, United States), SigmaPlot 10.0 (Sigma-Aldrich, St. Louis, MO, United States), OriginPro 8 (OriginLab Corp., Northampton, MA, United States), and GraphPad Prism 5 (GraphPad Software, San Diego, CA, United States). […]

Nav1.3 = target: T2, Nav1.3 (Homo sapiens, UniProt Q9NY46); assay: Whole-cell patch-clamp, Nav1.3 in HEK293T cells; format: cell-based; conditions: mean ± SEM
T2 construct: expressed in transfected cells; host or cells: HEK293T
Source text: as §1, §2

Nav1.7 = target: T3, Nav1.7 (Homo sapiens, UniProt Q15858); assay: Recovery from fast inactivation (repriming) of Nav1.7; format: cell-based; conditions: 0.2 μM; at –100 mV; control 6.42 ± 0.85 ms; P < 0.05 paired t-test; mean ± SEM, n = 6–11 cells
T3 construct: expressed in transfected cells; host or cells: HEK293T
T3 sequence (O60939 30-215): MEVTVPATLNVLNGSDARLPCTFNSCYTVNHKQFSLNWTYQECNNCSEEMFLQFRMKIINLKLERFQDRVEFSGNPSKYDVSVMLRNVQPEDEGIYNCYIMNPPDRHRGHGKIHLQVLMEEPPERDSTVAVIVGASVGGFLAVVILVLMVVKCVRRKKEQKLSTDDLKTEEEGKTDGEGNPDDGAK
T3 sequence (Q15858 other isoform, or with tags, fused parts or gaps): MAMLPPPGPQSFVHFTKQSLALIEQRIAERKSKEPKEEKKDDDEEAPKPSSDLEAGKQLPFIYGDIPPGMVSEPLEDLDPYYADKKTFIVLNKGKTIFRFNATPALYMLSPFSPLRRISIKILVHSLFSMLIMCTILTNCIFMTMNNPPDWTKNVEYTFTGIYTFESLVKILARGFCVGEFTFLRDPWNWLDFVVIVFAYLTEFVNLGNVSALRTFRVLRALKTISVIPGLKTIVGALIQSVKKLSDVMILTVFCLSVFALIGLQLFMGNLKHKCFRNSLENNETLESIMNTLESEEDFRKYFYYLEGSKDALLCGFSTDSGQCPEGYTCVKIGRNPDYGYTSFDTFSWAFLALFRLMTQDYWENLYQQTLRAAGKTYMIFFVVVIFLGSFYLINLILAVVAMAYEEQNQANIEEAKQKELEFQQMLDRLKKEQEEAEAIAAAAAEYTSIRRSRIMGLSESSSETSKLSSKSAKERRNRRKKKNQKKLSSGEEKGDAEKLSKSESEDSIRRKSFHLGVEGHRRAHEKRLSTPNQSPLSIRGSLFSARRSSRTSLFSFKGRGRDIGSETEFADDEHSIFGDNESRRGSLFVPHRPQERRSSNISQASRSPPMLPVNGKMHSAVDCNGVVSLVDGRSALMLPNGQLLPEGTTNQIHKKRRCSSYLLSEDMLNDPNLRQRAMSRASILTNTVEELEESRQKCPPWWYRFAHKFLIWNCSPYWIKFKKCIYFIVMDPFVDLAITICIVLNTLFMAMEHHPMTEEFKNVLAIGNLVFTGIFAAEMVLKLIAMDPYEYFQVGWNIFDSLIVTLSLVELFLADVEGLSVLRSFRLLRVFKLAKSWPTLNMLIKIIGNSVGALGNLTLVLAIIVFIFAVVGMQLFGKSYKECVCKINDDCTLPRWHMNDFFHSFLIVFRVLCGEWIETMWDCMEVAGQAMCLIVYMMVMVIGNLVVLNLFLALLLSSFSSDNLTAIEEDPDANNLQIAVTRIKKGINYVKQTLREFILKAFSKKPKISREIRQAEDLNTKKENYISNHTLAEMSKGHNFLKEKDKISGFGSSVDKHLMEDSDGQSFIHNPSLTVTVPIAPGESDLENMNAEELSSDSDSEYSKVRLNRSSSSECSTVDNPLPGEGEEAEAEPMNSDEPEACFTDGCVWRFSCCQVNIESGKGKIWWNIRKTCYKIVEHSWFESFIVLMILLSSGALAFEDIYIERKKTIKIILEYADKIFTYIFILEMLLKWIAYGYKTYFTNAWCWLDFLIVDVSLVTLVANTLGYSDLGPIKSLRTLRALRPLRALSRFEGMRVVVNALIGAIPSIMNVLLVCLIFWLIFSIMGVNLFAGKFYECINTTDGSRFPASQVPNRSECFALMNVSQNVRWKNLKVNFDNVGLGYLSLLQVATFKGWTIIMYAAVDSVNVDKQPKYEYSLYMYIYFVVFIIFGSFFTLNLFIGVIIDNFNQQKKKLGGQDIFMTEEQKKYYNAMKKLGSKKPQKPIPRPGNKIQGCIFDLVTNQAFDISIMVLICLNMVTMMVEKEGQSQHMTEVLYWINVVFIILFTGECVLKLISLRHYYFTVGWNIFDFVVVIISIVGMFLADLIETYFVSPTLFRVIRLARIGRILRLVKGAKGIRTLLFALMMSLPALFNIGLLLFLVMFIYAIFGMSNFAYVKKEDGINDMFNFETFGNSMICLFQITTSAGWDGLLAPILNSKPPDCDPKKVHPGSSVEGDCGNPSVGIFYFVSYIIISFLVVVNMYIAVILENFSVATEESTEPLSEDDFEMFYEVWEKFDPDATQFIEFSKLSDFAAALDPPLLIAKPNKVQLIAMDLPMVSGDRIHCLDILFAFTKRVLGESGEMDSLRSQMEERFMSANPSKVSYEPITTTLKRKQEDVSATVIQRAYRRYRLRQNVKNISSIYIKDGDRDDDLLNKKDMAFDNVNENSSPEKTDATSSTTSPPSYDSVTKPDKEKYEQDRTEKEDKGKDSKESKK
T3 sequence (Q07699 19-218, further chain): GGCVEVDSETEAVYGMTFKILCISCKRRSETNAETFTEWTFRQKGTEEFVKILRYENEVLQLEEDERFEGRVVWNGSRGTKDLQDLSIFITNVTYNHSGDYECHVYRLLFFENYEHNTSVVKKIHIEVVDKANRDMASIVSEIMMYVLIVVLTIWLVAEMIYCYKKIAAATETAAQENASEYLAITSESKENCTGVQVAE
Source text: as §1, with “States).” for “States). Additionally, plasmids β1- and β2-eGFP encoding the human β1 and β2 subunits, respectively, were co-transfected with those encoding WT Nav1.7 and Nav1.7 mutations in HEK293T cells.”
as §2
Fast inactivation time constants were calculated by fitting current decay traces with a single exponential function using the I–V protocol described above. […]

Nav1.4/N655D = assay: Whole-cell patch-clamp, Nav1.4/N655D in HEK293T cells; format: cell-based, rat; conditions: 1 μM, n = 4–5 cells
Source text: as §1, §2

Nav1.7/E818Q = assay: Whole-cell patch-clamp, Nav1.7/E818Q in HEK293T cells; format: cell-based, human; conditions: 1 μM, n = 5 cells
Source text: as §1, §2

Nav1.7/D816N = target: T4, Nav1.7/D816N (Homo sapiens, UniProt Q15858, D827N); assay: Time course of Nav1.7/D816N inhibition and recovery upon washing; format: cell-based; conditions: 1 μM, n = 4
T4 construct: expressed in transfected cells; host or cells: HEK293T
T4 sequence (O60939 30-215): as the sequence (O60939 30-215) above
T4 sequence (Q07699 19-218, further chain): as the sequence (Q07699 19-218, further chain) above
T4 sequence (Q15858 other isoform, or with tags, fused parts or gaps D816N): as the sequence (Q15858 other isoform, or with tags, fused parts or gaps) above, with D816N counted along it
Source text: as §1, §2

[1] = Adverse effects at the doses used in the mouse pain models; format: in vivo, ICR mice; conditions: dose of Ca2a used in this study (50–200 μg/kg i.p.)
Procedure: The ICR mice (18–22 g) used in this study were purchased from the Experimental Animal Center of SLac-kinda (Changsha, China). The animals were maintained at 20–25°C and freely allowed to standard rodent chow and water ad libitum. Ethical approval for in vivo experiments in animals was approved by the Animal Care and Use Committee (ACUC) at the Hunan Province Animal Management Office (HPAMO).

[2] = 1 μM, 50 ms to −10 mV from −100 mV
[3] = whole-cell patch-clamp, n = 4–7 cells per data point

For `CC(C)C[C@H](NC(=O)[C@H](CC(=O)O)NC(=O)[C@H](Cc1ccc(O)cc1)NC(=O)[C@H](CCCCN)NC(=O)[C@@H]1CSSC[C@@H]2NC(=O)[C@H](CCCCN)NC(=O)[C@H](CC(=O)O)NC(=O)[C@H](CC(N)=O)NC(=O)[C@H](CO)NC(=O)[C@@H]3CCCN3C(=O)[C@H](CC(N)=O)NC(=O)[C@@H]3CSSC[C@H](NC(=O)[C@H](C(C)C)NC(=O)[C@H](CC(C)C)NC(=O)[C@H](CO)NC(=O)[C@H](CO)NC(=O)[C@H](CO)NC(=O)[C@H](CCCCN)NC(=O)[C@H](CSSC[C@H](NC(=O)[C@H](C)N)C(=O)N[C@@H](CC(C)C)C(=O)NCC(=O)N[C@@H](Cc4ccccc4)C(=O)NCC(=O)N[C@@H](CCC(=O)O)C(=O)N[C@@H](CCCCN)C(=O)N3)NC2=O)C(=O)N[C@@H](CO)C(=O)N[C@@H](CCC(N)=O)C(=O)N[C@@H](CCCCN)C(=O)N[C@@H](Cc2c[nH]cn2)C(=O)N[C@@H](CCCCN)C(=O)N[C@@H](Cc2c[nH]c3ccccc23)C(=O)N1)C(=O)O` [Ca2a] (H-ACLGFGEKCNPSNDKCCKSSSLVCSQKHKWCKYDL-OH; disulfide 2-17, 9-24, 16-31 (inferred); N-terminus and C-terminus assumed), the “decrease of Nav1.2 current amplitude” value (Nav1.2; [2]) was 82.6 ± 2.7%, the IC50 (Nav1.2; [3]) was 0.216 ± 0.0091 µM and the “decrease of Nav1.3 current amplitude” value (Nav1.3; [2]) was 67.7 ± 3.8%. For the same compound, the IC50 (Nav1.3; [3]) was 0.4913 ± 0.0039 µM, the “τ of recovery from fast inactivation at Nav1.7” value (Nav1.7) was 8.93 ± 1.62 ms and the “inhibitory effect on Nav1.4/N655D” value (Nav1.4/N655D) was “no inhibitory effect”. The “activity on Nav1.7/E818Q” value (Nav1.7/E818Q) was “no activity”, the “recovery of Nav1.7/D816N current on washout” value (Nav1.7/D816N; extended washout) was “did not recover” and the “τon, Nav1.7/D816N” value (Nav1.7/D816N) was 18.4 ± 1.3 s. The adverse effects [1] was “does not cause significant adverse effects”.
